Measured values published in PubChem BioAssay AID1963849 (Molecular Pharmacology Branch, DTP, NCI, 2024).

Test system: 299254-011-R-J1-PDC complex spheroid viability
Assay: Anticancer human tumor 299254-011-R-J1-PDC patient-derived melanoma cell line growth inhibition [POLQ]
Settings: for IC50: curve of first compound; for viability, T/C: stronger effect = lower value
In short: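 Complex spheroid viability model combining PDC tumour cells with endothelial (HUVEC) and MSC stromal cells. Novobiocin, ART-558 or RP6685 were tested singly and in combination with standard and investigational anticancer drugs. Each was titrated in half-log steps from near clinical Cmax, or from 10 microM where Cmax was unknown.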
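Also: spheroids exposed to drugs for one week before measurement.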
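For viability, T/C in this document: percent viability relative to DMSO vehicle control taken as 100%.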

`CC1COCCN1c1cc(C2(S(C)(=N)=O)CC2)nc(-c2ccnc3[nH]ccc23)n1` (configuration not stated) + Cc1cccc(N(C)C(=O)C2C(O)CCN2c2nc(C)cc(C(F)(F)F)c2C#N)c1 showed an IC50 (second compound 0.0316 µM) of 6.32 µM, an IC50 (second compound 0.1 µM) of 5.32 µM and an IC50 (second compound 0.316 µM) of 7 µM. It also gave an IC50 (second compound 1 µM) of 6.25 µM, an IC50 (second compound 3.16 µM) of 4.22 µM and an IC50 (second compound 10 µM) of 2.67 µM. The viability, T/C (second compound 0.0316 µM, first compound 0.0316 µM) was 105%, the viability, T/C (second compound 0.0316 µM, first compound 0.1 µM) was 99% and the viability, T/C (second compound 0.0316 µM, first compound 0.316 µM) was 87.2%. The viability, T/C (second compound 0.0316 µM, first compound 1 µM) was 79.6%, the viability, T/C (second compound 0.0316 µM, first compound 3.16 µM) was 66.4% and the viability, T/C (second compound 0.0316 µM, first compound 10 µM) was 39.4%. The viability, T/C (second compound 0.1 µM, first compound 0.0316 µM) was 108%, the viability, T/C (second compound 0.1 µM, first compound 0.1 µM) was 103% and the viability, T/C (second compound 0.1 µM, first compound 0.316 µM) was 91.1%. The viability, T/C (second compound 0.1 µM, first compound 1 µM) was 80.1%, the viability, T/C (second compound 0.1 µM, first compound 3.16 µM) was 61% and the viability, T/C (second compound 0.1 µM, first compound 10 µM) was 36.7%. For the same compound, the viability, T/C (second compound 0.316 µM, first compound 0.0316 µM) was 99.1%, the viability, T/C (second compound 0.316 µM, first compound 0.1 µM) was 97.4% and the viability, T/C (second compound 0.316 µM, first compound 0.316 µM) was 91.6%. The viability, T/C (second compound 0.316 µM, first compound 1 µM) was 96.6%, the viability, T/C (second compound 0.316 µM, first compound 3.16 µM) was 66% and the viability, T/C (second compound 0.316 µM, first compound 10 µM) was 42.8%. It also gave a viability, T/C (second compound 1 µM, first compound 0.0316 µM) of 93%, a viability, T/C (second compound 1 µM, first compound 0.1 µM) of 92.5% and a viability, T/C (second compound 1 µM, first compound 0.316 µM) of 104%. It also gave a viability, T/C (second compound 1 µM, first compound 1 µM) of 94.3%, a viability, T/C (second compound 1 µM, first compound 3.16 µM) of 70.9% and a viability, T/C (second compound 1 µM, first compound 10 µM) of 35.6%. For the same compound, the viability, T/C (second compound 3.16 µM, first compound 0.0316 µM) was 90.4%, the viability, T/C (second compound 3.16 µM, first compound 0.1 µM) was 92.7% and the viability, T/C (second compound 3.16 µM, first compound 0.316 µM) was 100%. The viability, T/C (second compound 3.16 µM, first compound 1 µM) was 92.3%, the viability, T/C (second compound 3.16 µM, first compound 3.16 µM) was 54.4% and the viability, T/C (second compound 3.16 µM, first compound 10 µM) was 36.8%. It also gave a viability, T/C (second compound 10 µM, first compound 0.0316 µM) of 93%, a viability, T/C (second compound 10 µM, first compound 0.1 µM) of 92.7% and a viability, T/C (second compound 10 µM, first compound 0.316 µM) of 93.8%. For the same compound, the viability, T/C (second compound 10 µM, first compound 1 µM) was 63.7%, the viability, T/C (second compound 10 µM, first compound 3.16 µM) was 52.7% and the viability, T/C (second compound 10 µM, first compound 10 µM) was 37.9%.
